Measured values taken from US10681909B2, “Herbicidal triazoles” (FMC Corporation, priority 2014, dated 2020).

Key:
rice = experiment: Test B flooded paddy test; assay type: in vivo, Oryza sativa; conditions: 250 g ai/ha, applied to paddy water at 2-leaf stage, visual rating after 13 to 15 d, scale 0 (no effect) to 100 (complete control)
Method in brief: (§1)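 Pots were flooded to 3 cm above the soil at treatment, and compounds were applied directly into the paddy water. That depth was held throughout. After 13 to 15 d in a greenhouse, plants were rated visually against untreated controls.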

ragweed = experiment: Test C postemergence; assay type: in vivo, Ambrosia elatior
From the text: (§2) Seeds of plant species selected from blackgrass (Alopecurus myosuroides), ryegrass, Italian (Italian ryegrass, Lolium multiflorum), wheat (winter wheat, Triticum aestivum), galium (catchweed bedstraw, Galium aparine), corn (Zea mays), crabgrass, large (large crabgrass, Digitaria sanguinalis), foxtail, giant, (giant foxtail, Setaria faberii), johnsongrass (Sorghum halepense), lambsquarters (Chenopodium album), morningglory (Ipomoea coccinea), nutsedge, yellow (yellow nutsedge, Cyperus esculentus), pigweed (Amaranthus retroflexus), ragweed (common ragweed, Ambrosia elatior), soybean (Glycine max), barnyardgrass (Echinochloa crus-galli), oilseed rape (Brassica napus), waterhemp (common waterhemp, Amaranthus rudis), and velvetleaf (Abutilon theophrasti) were planted into a blend of loam soil and sand and treated preemergence with test chemicals formulated in a non-phytotoxic solvent mixture which included a surfactant. At the same time, plants selected from these crop and weed species and also chickweed (common chickweed, Stellaria media), oat, wild (wild oat, Avena fatua), and kochia (Kochia scoparia), were planted in pots containing Sunshine Redi-Earth® planting medium comprising spaghnum peat moss, vermiculite, starter nutrients and dolomitic limestone and treated with postemergence applications of test chemicals formulated in the same manner. Plants ranged in height from 2 to 18 cm (1- to 4-leaf stage) for postemergence treatments. […] A dash (-) response means no test result.

morningglory = experiment: Test C postemergence; assay type: in vivo, Ipomoea coccinea
From the text: as §2

ducksalad = experiment: Test B flooded paddy test; assay type: in vivo, Heteranthera limosa; conditions: 250 g ai/ha, applied to paddy water at 2-leaf stage, visual rating after 13 to 15 d, scale 0 (no effect) to 100 (complete control)
Method in brief: as §1

barnyardgrass [1] = experiment: Test A postemergence; assay type: in vivo, Echinochloa crus-galli; conditions: 0 to 100 scale (0 no effect, 100 complete control), approx. 10 d
Method in brief: (§3)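 Pre- and postemergence spray tests in a loam soil–sand mixture: seeded soil received a directed spray, while established seedlings 2–10 cm high at the one- to two-leaf stage were treated over the top. Compounds were carried in non-phytotoxic solvent with surfactant.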

velvetleaf [2] = experiment: Test C postemergence; assay type: in vivo, Abutilon theophrasti
From the text: as §2

pigweed = experiment: Test C postemergence; assay type: in vivo, Amaranthus retroflexus
From the text: as §2

johnsongrass = experiment: Test C postemergence; assay type: in vivo, Sorghum halepense
From the text: as §2

corn = experiment: Test A postemergence; assay type: in vivo, Zea mays; conditions: 0 to 100 scale (0 no effect, 100 complete control), approx. 10 d
Method in brief: as §3

foxtail, giant = experiment: Test A preemergence; assay type: in vivo, Setaria faberii; conditions: 0 to 100 scale (0 no effect, 100 complete control)
Method in brief: as §3

velvetleaf [3] = experiment: Test C preemergence; assay type: in vivo, Abutilon theophrasti; conditions: for Velvetleaf plant response rating (0 to 100): Preemergence, visual rating after 13 to 15 d; for Plant response rating (scale of 0 to 100 where 0 is no effect and 100 is complete control): Velvetleaf, preemergence, 250 g ai/ha
From the text: as §2

kochia = experiment: Test C postemergence; assay type: in vivo, Kochia scoparia
From the text: as §2

crabgrass, large = experiment: Test C postemergence; assay type: in vivo, Digitaria sanguinalis
From the text: as §2

barnyardgrass [4] = experiment: Test A preemergence; assay type: in vivo, Echinochloa crus-galli; conditions: 0 to 100 scale (0 no effect, 100 complete control)
Method in brief: as §3

Fc1ccc(-c2nc(OCC(F)(F)F)n(Cc3ccnc(C(F)(F)F)c3)n2)cc1 [Compound 30]
Plant response rating, Rice, Flood (rice): 30 | Plant response rating (scale of 0 to 100 where 0 is no effect and 100 is complete control) (ragweed; 31 g ai/ha): 65 | Plant response rating (scale of 0 to 100 where 0 is no effect and 100 is complete control) (ragweed; 62 g ai/ha): 55 | Plant response rating (scale of 0 to 100 where 0 is no effect and 100 is complete control) (ragweed; 125 g ai/ha): 65 | Plant response rating (scale of 0 to 100 where 0 is no effect and 100 is complete control) (ragweed; 250 g ai/ha): 85 | Plant response rating (scale of 0 to 100 where 0 is no effect and 100 is complete control) (morningglory; 31 g ai/ha): 80 | Plant response rating (scale of 0 to 100 where 0 is no effect and 100 is complete control) (morningglory; 62 g ai/ha): 70 | Plant response rating (scale of 0 to 100 where 0 is no effect and 100 is complete control) (morningglory; 125 g ai/ha): 80 | Plant response rating (scale of 0 to 100 where 0 is no effect and 100 is complete control) (morningglory; 250 g ai/ha): 100 | Plant response rating, Ducksalad, Flood (ducksalad): 80 | Plant response rating, Barnyardgrass (barnyardgrass [1]; 125 g ai/ha): 80 | Plant response rating, Barnyardgrass (barnyardgrass [1]; 500 g ai/ha): 90 | Plant response rating (scale of 0 to 100 where 0 is no effect and 100 is complete control) (velvetleaf [2]; 31 g ai/ha): 55 | Plant response rating (scale of 0 to 100 where 0 is no effect and 100 is complete control) (velvetleaf [2]; 62 g ai/ha): 60 | Plant response rating (scale of 0 to 100 where 0 is no effect and 100 is complete control) (velvetleaf [2]; 125 g ai/ha): 80 | Plant response rating (scale of 0 to 100 where 0 is no effect and 100 is complete control) (velvetleaf [2]; 250 g ai/ha): 90 | Plant response rating (scale of 0 to 100 where 0 is no effect and 100 is complete control) (pigweed; 31 g ai/ha): 95 | Plant response rating (scale of 0 to 100 where 0 is no effect and 100 is complete control) (pigweed; 62 g ai/ha): 95 | Plant response rating (scale of 0 to 100 where 0 is no effect and 100 is complete control) (pigweed; 125 g ai/ha): 98 | Plant response rating (scale of 0 to 100 where 0 is no effect and 100 is complete control) (pigweed; 250 g ai/ha): 98 | Plant response rating (scale of 0 to 100 where 0 is no effect and 100 is complete control) (johnsongrass; 31 g ai/ha): 30 | Plant response rating (scale of 0 to 100 where 0 is no effect and 100 is complete control) (johnsongrass; 62 g ai/ha): 100 | Plant response rating (scale of 0 to 100 where 0 is no effect and 100 is complete control) (johnsongrass; 125 g ai/ha): 35 | Plant response rating (scale of 0 to 100 where 0 is no effect and 100 is complete control) (johnsongrass; 250 g ai/ha): 30 | Plant response rating, Corn (corn; 125 g ai/ha): 40 | Plant response rating, Corn (corn; 500 g ai/ha): 50 | Plant response rating, Foxtail, Giant (foxtail, giant; 125 g ai/ha): 100 | Plant response rating, Foxtail, Giant (foxtail, giant; 500 g ai/ha, approx. 10 d): 100 | Velvetleaf plant response rating (0 to 100) (velvetleaf [3]; 31 g ai/ha): 20 | Velvetleaf plant response rating (0 to 100) (velvetleaf [3]; 62 g ai/ha): 70 | Plant response rating (scale of 0 to 100 where 0 is no effect and 100 is complete control) (velvetleaf [3]): 85 | Plant response rating (scale of 0 to 100 where 0 is no effect and 100 is complete control) (kochia; 31 g ai/ha): 100 | Plant response rating (scale of 0 to 100 where 0 is no effect and 100 is complete control) (kochia; 62 g ai/ha): 100 | Plant response rating (scale of 0 to 100 where 0 is no effect and 100 is complete control) (kochia; 125 g ai/ha): 100 | Plant response rating (scale of 0 to 100 where 0 is no effect and 100 is complete control) (kochia; 250 g ai/ha): 100 | Plant response rating (scale of 0 to 100 where 0 is no effect and 100 is complete control) (crabgrass, large; 31 g ai/ha): 20 | Plant response rating (scale of 0 to 100 where 0 is no effect and 100 is complete control) (crabgrass, large; 62 g ai/ha): 15 | Plant response rating (scale of 0 to 100 where 0 is no effect and 100 is complete control) (crabgrass, large; 125 g ai/ha): 35 | Plant response rating (scale of 0 to 100 where 0 is no effect and 100 is complete control) (crabgrass, large; 250 g ai/ha): 60 | Plant response rating, Barnyardgrass (barnyardgrass [4]; 125 g ai/ha): 90 | Plant response rating, Barnyardgrass (barnyardgrass [4]; 500 g ai/ha, approx. 10 d): 100

CCOc1nc(-c2ccc(C(F)(F)F)cc2)nn1Cc1ccnc(C(F)(F)F)c1 [Compound 35, 4-[[5-ethoxy-3-[4-(trifluoromethyl)phenyl]-1H-1,2,4-triazole-1-yl]methyl]-2-(trifluoromethyl)pyridine]
Plant response rating (scale of 0 to 100 where 0 is no effect and 100 is complete control) (ragweed; 31 g ai/ha): 65 | Plant response rating (scale of 0 to 100 where 0 is no effect and 100 is complete control) (ragweed; 62 g ai/ha): 75 | Plant response rating (scale of 0 to 100 where 0 is no effect and 100 is complete control) (ragweed; 125 g ai/ha): 80 | Plant response rating (scale of 0 to 100 where 0 is no effect and 100 is complete control) (ragweed; 250 g ai/ha): 85 | Plant response rating (scale of 0 to 100 where 0 is no effect and 100 is complete control) (morningglory; 31 g ai/ha): 70 | Plant response rating (scale of 0 to 100 where 0 is no effect and 100 is complete control) (morningglory; 62 g ai/ha): 95 | Plant response rating (scale of 0 to 100 where 0 is no effect and 100 is complete control) (morningglory; 125 g ai/ha): 85 | Plant response rating (scale of 0 to 100 where 0 is no effect and 100 is complete control) (morningglory; 250 g ai/ha): 95 | pest or weed control at 31 g/ha (barnyardgrass [1]; Echinochloa crus-galli, post-emergence, 240 h, 31 g ai/ha, read-out: Plant response rating, Barnyardgrass): 80% | pest or weed control at 125 g/ha (barnyardgrass [1]; Echinochloa crus-galli, post-emergence, 240 h, 125 g ai/ha, read-out: Plant response rating, Barnyardgrass): 90% | Plant response rating (scale of 0 to 100 where 0 is no effect and 100 is complete control) (velvetleaf [2]; 31 g ai/ha): 65 | Plant response rating (scale of 0 to 100 where 0 is no effect and 100 is complete control) (velvetleaf [2]; 62 g ai/ha): 75 | Plant response rating (scale of 0 to 100 where 0 is no effect and 100 is complete control) (velvetleaf [2]; 125 g ai/ha): 80 | Plant response rating (scale of 0 to 100 where 0 is no effect and 100 is complete control) (velvetleaf [2]; 250 g ai/ha): 85 | Plant response rating (scale of 0 to 100 where 0 is no effect and 100 is complete control) (pigweed; 31 g ai/ha): 98 | Plant response rating (scale of 0 to 100 where 0 is no effect and 100 is complete control) (pigweed; 62 g ai/ha): 98 | Plant response rating (scale of 0 to 100 where 0 is no effect and 100 is complete control) (pigweed; 125 g ai/ha): 100 | Plant response rating (scale of 0 to 100 where 0 is no effect and 100 is complete control) (pigweed; 250 g ai/ha): 100 | Plant response rating (scale of 0 to 100 where 0 is no effect and 100 is complete control) (johnsongrass; 31 g ai/ha): 75 | Plant response rating (scale of 0 to 100 where 0 is no effect and 100 is complete control) (johnsongrass; 62 g ai/ha): 85 | Plant response rating (scale of 0 to 100 where 0 is no effect and 100 is complete control) (johnsongrass; 125 g ai/ha): 95 | Plant response rating (scale of 0 to 100 where 0 is no effect and 100 is complete control) (johnsongrass; 250 g ai/ha): 100 | Corn plant response rating (crop injury, 0 = no effect, 100 = complete kill) at 31 g/ha (corn; Zea mays, post-emergence, 240 h, 31 g ai/ha): 40% | Corn plant response rating (crop injury, 0 = no effect, 100 = complete kill) at 125 g/ha (corn; Zea mays, post-emergence, 240 h, 125 g ai/ha): 80% | pest or weed control at 31 g/ha (foxtail, giant; Setaria faberi, pre-emergence, 240 h, 31 g ai/ha, read-out: Plant response rating, Foxtail, Giant): 100% | pest or weed control at 125 g/ha (foxtail, giant; Setaria faberi, pre-emergence, 240 h, 125 g ai/ha, read-out: Plant response rating, Foxtail, Giant): 100% | Velvetleaf plant response rating (0 to 100) (velvetleaf [3]; 31 g ai/ha): 70 | Velvetleaf plant response rating (0 to 100) (velvetleaf [3]; 62 g ai/ha): 65 | Plant response rating (scale of 0 to 100 where 0 is no effect and 100 is complete control) (velvetleaf [3]): 90 | Plant response rating (scale of 0 to 100 where 0 is no effect and 100 is complete control) (kochia; 31 g ai/ha): 90 | Plant response rating (scale of 0 to 100 where 0 is no effect and 100 is complete control) (kochia; 62 g ai/ha): 90 | Plant response rating (scale of 0 to 100 where 0 is no effect and 100 is complete control) (kochia; 125 g ai/ha): 90 | Plant response rating (scale of 0 to 100 where 0 is no effect and 100 is complete control) (kochia; 250 g ai/ha): 90 | Plant response rating (scale of 0 to 100 where 0 is no effect and 100 is complete control) (crabgrass, large; 31 g ai/ha): 35 | Plant response rating (scale of 0 to 100 where 0 is no effect and 100 is complete control) (crabgrass, large; 62 g ai/ha): 60 | Plant response rating (scale of 0 to 100 where 0 is no effect and 100 is complete control) (crabgrass, large; 125 g ai/ha): 70 | Plant response rating (scale of 0 to 100 where 0 is no effect and 100 is complete control) (crabgrass, large; 250 g ai/ha): 80 | pest or weed control at 31 g/ha (barnyardgrass [4]; Echinochloa crus-galli, pre-emergence, 240 h, 31 g ai/ha, read-out: Plant response rating, Barnyardgrass): 80% | pest or weed control at 125 g/ha (barnyardgrass [4]; Echinochloa crus-galli, pre-emergence, 240 h, 125 g ai/ha, read-out: Plant response rating, Barnyardgrass): 100%
